Experimental data from a melting point compilation (Tetko et al.; mined from patent text by program, amines drawn as free bases though some values may be those of a salt).
Non-standard residues stand in square brackets, D forms with d. Residues, ends and D or L forms follow the SMILES beside them. *: point of attachment. Npys = O=[N+]([O-])c1cccnc1S*; Leu(ol) = CC(C)C[C@H](N)CO; Mpa = O=C(O)CCS

| Compound | melting point [°C] |
| --- | --- |
| Cn1ccnc1Sc1ccc(Nc2c(C#N)cnc3sccc23)cc1Cl | > 240 |
| CSc1nc(Cl)c(C#N)s1 | 83 to 87 |
| COc1ccc(CCN2CCC(C(=O)c3csc4ccccc34)CC2)cc1 | 114 to 116 |
| Cc1ccc(Cl)c2c1[nH]c1c(C(=O)O)cccc12 | 303 |
| COc1ccc(-n2nc(OC(C)C)cc2-c2ccc(OCCO)cc2)cn1 | 74 to 75 |
| Cc1c(SCCCSCCn2c([N+](=O)[O-])cnc2C)ccnc1CNc1cnc2ccccc2c1 | 133 to 135 |
| Cc1nc2ccc(N)cn2c(=O)c1CCCl | 185 |
| CC(C)(C)OC(=O)CN1C(=O)[C@@H](NC(=O)OCc2ccccc2)[C@H]1CCc1ccco1 | 82 to 84 |
| CC(C)(C(=O)O)c1cccc(OCc2ccccc2)c1 | 114 to 116 |
| CS(=O)(=O)c1ccc(C(CC2CCOCC2)c2ccc(-c3ccccn3)[nH]2)cn1 (centres undefined) | 89 to 90 |
| CCCCCCCCCCCCCCCc1cccc(OC)c1C1NC(=O)NC(C)=C1C(=O)OCC (centres undefined) | 91 to 93 |
| CCC(=O)NC1=C(OCCOC)C(=O)c2ccccc2C1=O | 116 to 117 |
| CCNCCc1c[nH]c2ccc(Cn3cncn3)cc12 | 106 to 107 |
| COC(=O)NNC(=S)Cc1ccc(C)cc1 | 104 to 105 |
| COc1cc(OC)cc(N2CCN(C(=O)Nc3cc(-c4cccnc4)nc4ccccc34)CC2)c1 | 95 to 96 |
| CC(C)(C)OC(=O)Nc1ccc(-c2cccc(F)c2)cc1N | 125 to 128 |
| O=C(CN1CCc2c([nH]c3ccccc23)C1c1ccccc1)OCc1ccccc1 (centres undefined) | 131 to 132 |
| Cc1nc2c(N)nc3c(c2n1CCCCNC(=O)N1CCOCC1)CCCC3 | 134 to 135 |
| O=C1CC(c2ccc(F)cc2)c2ccccc21 (centres undefined) | 120 to 121 |
| Cn1cc(C(=O)NCc2ccc(Cl)cc2)c(=O)c2cc(CN3CCOCC3)sc21 | 230 to 236 |
| CCCCN(CCCC)C(=O)c1c(C)n(CCc2ccccc2)c2cc(C(=O)CC)c(O)c(CN3CCCCC3)c12 | 111 to 112 |
| CCOC(=O)/C=C/c1ccc(OCc2nc(-c3ccccc3)oc2C)nc1 | 109 to 110 |
| CC(C)(C)C(=O)OCc1nc(-c2ccc3c(c2)Nc2ccccc2S3)cs1 | 120 to 122 |
| O=c1[nH]c2ccccc2n2ccnc12 | > 300 |
| CC(C)CNCC(=O)Nc1cccc2c1C(=O)c1c(NC(=O)CNCC(C)C)cccc1C2=O | 139 to 140 |

| Compound | melting point [°C] |
| --- | --- |
| CS(=O)(=O)N1CN(C(=O)c2c(F)cccc2F)C(=O)N(c2ccc(Cl)cc2)C1 | 178 |
| COCn1c(-c2nc3c(OC)ccc(N4CCOCC4)c3s2)nc2ccc(C3CCNC3)nc21 (centres undefined) | 120 to 130 |
| COc1cc(OC)c2nc[nH]c(=O)c2c1 | 280 to 282 |
| Cc1nc(N2CCN(Cc3ccccc3)C2=N)sc1C(=O)NCc1ccccc1 | 125 to 126 |
| O=C(NCN1CCCCC1)Nc1ccc(-c2cnc(CSCCOc3ccccc3)o2)cc1 | 84 to 87 |
| Cc1c(Nc2c(C#N)cnc3sc(C4=CCN(S(C)(=O)=O)CC4)cc23)ccc2[nH]ccc12 | 228 |
| COc1cc(OC)c2c(C)cc(=O)[nH]c2c1 | 239 to 240 |
| N#CCCNC(=O)C1=CC(CF)(CF)Oc2ccc(C(F)(F)F)cc21 | 129 to 131 |
| CC(C)C[C@@H](CO)NC(=O)[C@H](Cc1c[nH]cn1)NC(=O)[C@H](Cc1ccccc1)NC(=O)CCSSc1ncccc1[N+](=O)[O-] ([Mpa](Npys)FH[Leu(ol)]) | 109 to 112 |
| CCN(CC)CCCNC(=O)N1CCCC(S(=O)(=O)c2ccccc2)C1 (centres undefined) | 56 to 58.5 |
| O=C(N1CCN(c2ccccc2)CC1)N1CC(Oc2ccc(F)cc2)C1 | 124 to 125 |
| CCCCN(C(=O)CNC(=O)c1cc2ccccc2n1CC(=O)OC)c1c(OC)cc(C)cc1OC | 139 |
| CCOC(=O)C1=C(C)NC(C)=C(C(=O)OCC)C1c1c(Cl)cccc1Cl | 134 to 135 |
| Cc1cc(Cc2cc(C(C)(C)C)cc(-n3nc4ccccc4n3)c2O)c(O)c(C(C)(C)C)c1 | 175 |
| O=CN1CCN(c2ncc3c(=O)c(C(=O)ON4C(=O)CCC4=O)c[nH]c3n2)CC1 | > 300 |
| CC(C)N1CCN(Cc2cc(NC(=O)Nc3ccc(Oc4cc(Cl)ncn4)cc3)cc(C(F)(F)F)c2)CC1 | 101 |
| COc1cc2nc(C(=O)Nc3cc(C)cc(C)n3)[nH]c2cc1OC | 256 |
| CCCS(=O)(=O)NC(=O)CCc1cc(OC(C)C)nn1Cc1ccc(Cl)cc1Cl | 124 to 126 |
| COc1ccc(N2CCN(c3c(C)c(C)c4c(c3C)CC(C)(C)O4)CC2)cc1OC | 135 to 137 |
| Nc1ccccc1C(=O)Nc1ccc(C(F)(F)F)cc1 | 160 to 161 |
| NS(=O)(=O)c1ccccc1C(=O)c1cccs1 | 122 to 125 |
| CC1CCC2(C)C(=CCC3C4CC(C)C(=O)C4(C)CCC32)C1 (centres undefined) | 109 to 110 |
| COC(=O)CC(O)CCSc1cc(C(C)(C)C)c(O)c(C(C)(C)C)c1 (centres undefined) | 77 to 80 |
| CC(C)(C)OCc1cccc(-c2ccc3nc(-c4cccnc4)cn3c2)c1 | 220 to 222 |
| CN1CCN(S(=O)(=O)CCCO)CC1 | 90 to 93 |

| Compound | melting point [°C] |
| --- | --- |
| O=C(CCc1oc(-n2cnc3ccccc32)nc1-c1ccc(Cl)cc1)N1CCSC1 | 125 to 126 |
| O=S(=O)(Oc1ccc(Cl)c2cccnc12)C(F)(F)F | 80 to 83 |
| CN(C)CCNC(=O)c1ccc(-c2cnc3c(c2)N(C(=O)c2ccccc2)CCN3)cc1 | 145 to 147 |
| CC(C)[C@H]1C(C(F)(F)F)OC(=O)N1Cc1ccccc1 (some centres undefined) | 92 to 93 |
| O=C(O)Cc1cc(C(=O)Cc2ccccc2Cl)ccc1O | 230 |
| CCOCN1C(C)=C(C(C)=O)C(c2cccc([N+](=O)[O-])c2)C(C(=O)OCC)=C1C (centres undefined) | 110 to 111 |
| Cc1ccc(Cl)c2sc(N)nc12 | 206 |
| CCCc1ccc(OCCC(C)C)c2c(=O)cc(C(=O)O)oc12 | 64.5 to 65 |
| CCc1nc2cc([N+](=O)[O-])ccc2o1 | 88 to 90 |
| O=C(O)CCC(=O)c1ccc(N2CCCCC2)cc1 | 150 to 151 |
| CCOC(=O)/C=C/c1cnc(-c2ccc(O)c(C34CC5CC(CC(C5)C3)C4)c2)nc1 | 226 to 228 |
| O=C(Cc1ccccc1)c1ccc(OCC2CO2)cc1 (centres undefined) | 81 to 82.4 |
| C=CC(c1ccccc1)c1cc(C)c2c(c1O)C(=O)CC2 (centres undefined) | 131 to 132 |
| CCOC(=O)c1c(-c2ccc(N3CCN(C)CC3)cc2)n(C)n(-c2ccc(C#N)cc2)c1=O | 278 to 280 |
| Cc1nc(COc2ccc3nc(N)c4nc5n(c4c3c2)C(C)COC5)cs1 (centres undefined) | 105 to 107 |
| N#CCCCCC(=O)c1ccc(Br)cc1 | 47 to 48 |
| CC(=S)NCC1CN(c2ccc(S(=O)CCF)c(F)c2)C(=O)O1 (centres undefined) | 161 |
| CCc1cc(NCc2ccc(-c3ccccc3C#N)cc2)n2ncc([N+](=O)[O-])c2n1 | 205 to 207 |
| CCOC(=O)C(=C1SC(=S)N(CC(=O)O)C1=O)c1csc(NC(C)=O)n1 | 292 to 296 |
| CC(C)c1cc(OCCN2CCOCC2)cc2c1C(=O)N(COc1cc(=O)n3cccc(OCCCN4CCOCC4)c3n1)S2(=O)=O | 145 to 150 |
| COC(=O)c1cc([N+](=O)[O-])c[nH]1 | 196 to 197 |
| Cc1cc(C(O)(C(F)(F)F)C(F)(F)F)cc(C)c1NCCN(C)C | 112 to 115 |
| COC(=O)[C@H](Cc1c(Br)n(C(=O)OC(C)(C)C)c2cc(Br)c(OC)c(Br)c12)NC(C)=O | 126 to 128 |
| O=C(Nc1nccs1)C1=C(O)c2ccsc2S(=O)(=O)C1 | 215 to 216 |
| COC(=O)c1ccc(OCCCCCOc2ccc(C(=O)OC)cc2)cc1 | 93 to 95 |

| Compound | melting point [°C] |
| --- | --- |
| CC(=O)Nc1nc(CCc2ccc(N)cc2)c(C(=O)NCc2ccc(S(C)(=O)=O)cc2)s1 | 78 to 80 |
| CCCCc1nc2c(N)nc3ccccc3c2n1NCc1ccccc1 | 159 to 160 |
| COC(=O)c1ccc(-c2nnc(-c3ccccc3)o2)cc1 | 172 to 173 |
| O=c1[nH]c2ncc(-c3ccccn3)nc2n1CC1CCCCC1 | 194 to 196 |
| O=C(O)c1cc(Br)no1 | 176 to 177 |
| COc1ccc(C[C@@H]2COc3ccc(OCc4ccc5ccccc5n4)cc3[C@H]2O)cc1OC (relative stereo) | 175 |
| C=CCC1(C(=O)NCCCC)c2ccccc2-c2ccccc21 | 62.5 to 64 |
| NCc1nnc(-c2ncn3c2[C@@H]2CCCN2C(=O)c2sccc2-3)o1 | 214 to 216 |
| NCC1(Cc2ccc(CC(=O)O)cc2)CCC1 | > 255 |
| Cc1c(OCc2ccccc2)ccc2c(=O)cc(N3CCN(c4ccccn4)CC3)oc12 | 148 to 149 |
| C=C1C=CC=C1Cc1ccc(O)cc1 | 143 to 144 |
| O=C1C(=O)c2c(nc3ccccn23)-c2cccc(Cl)c21 | > 260 |
| CCCCc1nn(-c2cc([N+](=O)[O-])ccc2Cl)c(=O)n1Cc1ccc(-c2cc(CCC)ccc2S(=O)(=O)NC(C)(C)C)cc1F | 84 to 86 |
| CC#CCOc1ccc(S(=O)(=O)N(C)C(C(=O)NO)c2ccc(OCCCNS(C)(=O)=O)cc2)cc1 (centres undefined) | 65 to 70 |
| O=Cc1ccc(-c2nc3ccccn3n2)cc1 | 246 to 247 |
| O=C1N(N2CCOCC2)c2ccccc2C1(Cc1ccccc1)Cc1ccccc1 | 179 to 180 |
| CC(=O)CNC1(c2ccc(OC(C)=O)cc2)Sc2ccccc2N(C)C1=O (centres undefined) | 182 to 184 |
| CC(C)n1nc(-c2sc(NC(=O)c3ccc4ccccc4c3)nc2-c2ccccc2)ccc1=O | 227 to 229 |
| NC(=O)[C@@H]1[C@H](Nc2c(Br)cnc3[nH]c(-c4ccoc4)nc23)[C@H]2C=C[C@@H]1C2 | 231 to 232 |
| Clc1nnc(C(Cl)(Cl)Cl)s1 | 41 |
| COc1c(C)cc2[nH]c(S(=O)Cc3nccc(C)c3C)nc2c1C (centres undefined) | 161 |
| COc1cc(OC)c(F)c(NCc2ccccc2)c1F | 65 to 66 |
| Cc1cc(C)c(N2CCCCC2=O)c(Cl)c1 | 108 to 109 |
| CC(CSC(=O)c1ccccc1)C(=O)N(CC(=O)O)C1CCC(c2ccccc2)CC1 (centres undefined) | 180 to 181 |
